Assay results taken from US9446047B2, “Substituted 2,3-dihydro-1H-inden-1-one retinoic acid-related orphan nuclear receptor antagonists for treating multiple sclerosis” (Arrien Pharmaceuticals LLC, priority 2013, dated 2016).
Like-named read-outs stand apart in the source and are kept apart here.

Key:
RORγt = target: T1, RORγt (Homo sapiens, UniProt P51449); experiment: RORγt-activated IL-17A Prom/LUCPorter HEK 293 cells luciferase reporter assay; format: cell-based; conditions: IL-17A Prom/LUCPorter HEK 293 cells transfected with RORγt, 16 h; read-out: RORγt Cell Specific
T1 construct: host or cells: IL-17A Prom/LUCPorter HEK 293 cell line (IMGENEX, IML-301)
T1 sequence (P51449 1-497 isoform P51449-2): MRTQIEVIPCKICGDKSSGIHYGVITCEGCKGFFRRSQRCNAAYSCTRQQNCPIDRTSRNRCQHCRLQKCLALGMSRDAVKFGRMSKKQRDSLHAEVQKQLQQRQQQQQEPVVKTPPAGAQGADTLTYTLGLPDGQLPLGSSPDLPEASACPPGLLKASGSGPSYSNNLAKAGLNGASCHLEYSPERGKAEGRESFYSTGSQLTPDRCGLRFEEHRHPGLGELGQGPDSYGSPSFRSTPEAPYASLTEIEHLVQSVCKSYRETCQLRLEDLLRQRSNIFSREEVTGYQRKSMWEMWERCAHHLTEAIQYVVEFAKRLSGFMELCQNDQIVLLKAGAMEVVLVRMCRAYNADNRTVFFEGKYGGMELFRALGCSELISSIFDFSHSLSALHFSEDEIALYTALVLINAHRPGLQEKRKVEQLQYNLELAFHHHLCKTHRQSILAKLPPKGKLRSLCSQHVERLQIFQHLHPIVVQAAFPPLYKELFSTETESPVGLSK
Procedure: Antagonistic (or inverse agonistic) effects of the test compounds on the RORγt-activated IL-17A Prom/LUCPorter™ HEK 293 cells were analyzed and IC50 of each compound was evaluated. […] Luciferase activity was analyzed using the luciferase reporter assay reagent (IMGENEX, LS100). The data were analyzed using Excel and Prism software. Percent activity was defined as 100×(1−(Well−Control A)/(Control B−Control A)), where Control A was the wells containing cells transfected with RORγt and Control B was the wells containing non-transfected cells. Both Controls A and B were treated with vehicle alone.

[1] = system: IL-17 release from CD4+ T cells; experiment: Cytokine IL-17 estimation by HTRF, IL-17 release from CD4+ T cells; format: cell-based; conditions: Homo sapiens, read-out: IL-17 Inhibition
Text: The assay was designed to assess the potency of test compounds on IL-17 cytokine release from CD4+ T cells. In order to aid in the identification of potent inhibitors, the IC50's determined for the test compounds IL-17 release from CD4+ T cells through the generation of 10 point Dose Response Curves (DRC). Assay methods used to quantify IL-17 secretion is HTRF (Homogenous Time Resolved Fluorescence). IL-17 secreted is detected by anti-IL-17 MAb labeled with XL665, the second MAb labeled with Cryptate, which binds to specific epitopes of human IL-17. Upon close proximity of both acceptor and donor energy transfer (FRET) occurs. This technique has been further enhanced by using long-lived labels combined with the detection on a time-resolved fluorescence basis, allowing […] of prompt fluorescence interferences.
The assay was performed according to manufacturer's instruction. All the reagents were reconstituted according to instructions provided. The reagents were dispensed into a half area 96-well plate in the following order: […] or sample, IL-17 MAbXL665 and 5 μL IL-17 Cryptate. For the negative control, the standard or sample is replaced by […]. The plate is covered with a plate sealer and incubated at rt for 2 h. Following incubation, the plate sealer is removed and the plate is read using HTRF protocol on Envision Microplate reader. All of the data analysis was carried out using Microsoft Excel (2010) and IC50 was determined using GraphPad Prism 4 software. % Inhibition of the test compounds were determined utilizing the following formula: % Inhibition=100−(100*(Average Test Compound Counts−Average Negative Control Counts)/(Average Positive Control Counts−Average Negative Control Counts)).
We have established robust in vitro cell-based HTRF assay for the activation and stimulation of CD4+ T lymphocytes to T helper 17 (Th17) cell differentiation and IL-17 production.

RORγ-LBD (RORγt) = target: T2, RORγ-LBD (RORγt) (Homo sapiens, UniProt P51449); experiment: TR-FRET RORγt Binding Assay; conditions: 6-His(GST)RORγ-LBD, SRC1_2 peptide, read-out: RORγt Binding
T2 construct: the 6-His-(GST) RORγ-LBD was used which expressed and purified from baculovirus infected Sf-21 insect cells; made in house; host or cells: baculovirus-infected Sf-21 insect cells
T2 sequence (P51449 269-508 limits assumed): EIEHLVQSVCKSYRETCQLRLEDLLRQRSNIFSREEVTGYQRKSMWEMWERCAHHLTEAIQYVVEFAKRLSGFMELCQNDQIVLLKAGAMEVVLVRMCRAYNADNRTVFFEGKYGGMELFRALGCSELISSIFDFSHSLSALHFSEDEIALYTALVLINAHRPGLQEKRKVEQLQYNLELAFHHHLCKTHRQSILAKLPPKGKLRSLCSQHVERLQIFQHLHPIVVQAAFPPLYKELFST
Procedure: TR-FRET RORγt Binding Assay: RORγ-LBD contains a 6-His and GST tag peptide from SRC1-2 an aminoterminal biotinyl-[…] was employed and the 6-His-(GST) RORγ-LBD was used which expressed and purified from baculovirus infected Sf-21 insect cells from Invitrogen and purified using glutathione sepharose. […] The peptide binding due to dose-curves of compounds was added the 0.1% DMSO. Fluorescence at wavelength 340 nm was read in each well of […] using an Envision fluorescence reader in Time Resolved mode after overnight incubation at 4° C.

[2] = IL-17 release from CD4+ T cells, HTRF

| Structure (SMILES) | IC50 (RORγt) [nM] | IC50 [1, 2] [nM] | IC50 (RORγ-LBD (RORγt)) [nM] | IC50 [1] [nM] |
| --- | --- | --- | --- | --- |
| COc1cc2c(cc1N1CCOCC1)CC(Cc1cc(Cl)ccc1C(F)(F)F)C2=O (stereo not drawn) [compound 53, 2-(5-chloro-2-(trifluoromethyl)benzyl)-6-methoxy-5-morpholino-2,3-dihydro-1H-inden-1-one] | > 1000 | > 1000 | > 1000 | – |
| COc1cc2c(cc1N1CCOCC1)CC(Cc1cc(C(F)(F)F)ccc1Cl)C2=O (stereo not drawn) [compound 158] | > 1000 | < 500 | < 500 | – |
| COc1cc2c(cc1N1CCN(C)CC1)CC(Cc1ccc(SC(F)(F)F)cc1)C2=O (stereo not drawn) [compound 106] | > 1000 | > 1000 | < 500 | – |
| COc1cc2c(cc1N1CCN(CCO)CC1)CC(Cc1ncccc1C(F)(F)F)C2=O (stereo not drawn) [compound 251] | < 500 | < 500 | < 500 | – |
| COc1cc2c(cc1N1CCOCC1)CC(Cc1ccc(C(F)(F)F)cc1)C2=O (stereo not drawn) [compound 86] | > 1000 | > 1000 | > 1000 | – |
| COc1cc2c(cc1N1CCN(C)CC1)CC(Cc1cccc(C(F)(F)F)c1Cl)C2=O (stereo not drawn) [compound 110, 2-(2-chloro-3-(trifluoromethyl)benzyl)-6-methoxy-5-(4-methylpiperazin-1-yl)-2,3-dihydro-1H-inden-1-one] | < 500 | > 1000 | < 500 | – |
| COc1cc2c(cc1N1CCNCC1)CC(Cc1ccc(SC(F)(F)F)cc1)C2=O (stereo not drawn) [compound 117] | > 1000 | > 1000 | < 500 | – |
| COc1cc2c(cc1N1CCC(C)CC1)CC(Cc1ncccc1C(F)(F)F)C2=O (stereo not drawn) [compound 142] | > 1000 | < 500 | > 1000 | – |
| COc1ccc2c(c1)CC(Cc1ncccc1C(F)(F)F)C2=O (stereo not drawn) [compound 184] | > 1000 | < 500 | < 500 | – |
| COc1cc2c(cc1N1CCC(C)CC1)CC(Cc1cccc(C(F)(F)F)c1)C2=O (stereo not drawn) [compound 154] | > 1000 | < 500 | > 1000 | – |
| COc1cc2c(cc1N1CCN(C)CC1)CC(Cc1cc(C(F)(F)F)ccc1Cl)C2=O (stereo not drawn) [compound 161, 2-(2-chloro-5-(trifluoromethyl)benzyl)-6-methoxy-5-(4-methylpiperazin-1-yl)-2,3-dihydro-1H-inden-1-one] | < 500 | > 1000 | > 1000 | – |
| COc1cc2c(cc1N1CCN(C)CC1)CC(Cc1cc(C(F)(F)F)cc(C(O)(C(F)(F)F)C(F)(F)F)c1)C2=O (stereo not drawn) [compound 240, 2-(3-(1,1,1,3,3,3-hexafluoro-2-hydroxypropan-2-yl)-5-(trifluoromethyl)benzyl)-6-methoxy-5-(4-methylpiperazin-1-yl)-2,3-dihydro-1H-inden-1-one] | < 500 | < 500 | < 500 | – |
| COc1ccc2c(c1OC)CC(Cc1ncccc1C(F)(F)F)C2=O (stereo not drawn) [compound 169] | > 1000 | < 500 | > 1000 | – |
| COc1cc2c(cc1N1CCOCC1)CC(Cc1ccc(Cl)cc1C(F)(F)F)C2=O (stereo not drawn) [compound 56, 2-(4-chloro-2-(trifluoromethyl)benzyl)-6-methoxy-5-morpholino-2,3-dihydro-1H-inden-1-one] | > 1000 | > 1000 | > 1000 | – |
| COc1cc2c(cc1N1CCN(C)CC1)CC(Cc1ncccc1C(F)(F)F)C2=O (stereo not drawn) [compound 113] | < 500 | > 1000 | < 500 | – |
| COc1cc2c(cc1O)C(=O)C(Cc1ccc(SC(F)(F)F)cc1)C2 (stereo not drawn) [compound 187] | > 1000 | < 500 | > 1000 | – |
| COc1cc2c(cc1N1CCN(C)CC1)CC(Cc1cccc(C(F)(F)F)c1)C2=O (stereo not drawn) [compound 103, 6-methoxy-5-(4-methylpiperazin-1-yl)-2-(3-(trifluoromethyl)benzyl)-2,3-dihydro-1H-inden-1-one] | > 1000 | > 1000 | < 500 | – |
| O=C1c2ccc(O)cc2CC1Cc1ccc(SC(F)(F)F)cc1 (stereo not drawn) [compound 193] | < 500 | < 500 | < 500 | – |
| COc1cc2c(cc1N1CCOCC1)CC(CC1CCN(Cc3ccccc3)CC1)C2=O (stereo not drawn) [compound 23, 2-((1-benzylpiperidin-4-yl)methyl)-6-methoxy-5-morpholino-2,3-dihydro-1H-inden-1-one] | > 1000 | < 500 | < 500 | – |
| COc1cc2c(cc1N1CCOCC1)CC(Cc1ccc(Cl)cc1F)C2=O (stereo not drawn) [compound 16, 2-(4-chloro-2-fluorobenzyl)-6-methoxy-5-morpholino-2,3-dihydro-1H-inden-1-one] | > 1000 | > 1000 | > 1000 | – |
| COc1cc2c(cc1N1CCOCC1)CC(Cc1cc(C(F)(F)F)cnc1Cl)C2=O (stereo not drawn) [compound 62, 2-((2-chloro-5-(trifluoromethyl)pyridin-3-yl)methyl)-6-methoxy-5-morpholino-2,3-dihydro-1H-inden-1-one] | > 1000 | – | > 1000 | < 500 |
| COc1ccc2c(c1OC)CC(Cc1ccc(SC(F)(F)F)cc1)C2=O (stereo not drawn) [compound 167] | > 1000 | < 500 | > 1000 | – |
| COc1cc2c(cc1-c1ccccc1OC(F)(F)F)CC(Cc1ncccc1C(F)(F)F)C2=O (stereo not drawn) [compound 213] | > 1000 | < 500 | < 500 | – |
| COc1cc2c(cc1N1CCOCC1)C/C(=C\c1cc(Br)cc(OC(F)(F)F)c1)C2=O [compound 30, (E)-2-(3-bromo-5-(trifluoromethoxy)benzylidene)-6-methoxy-5-morpholino-2,3-dihydro-1H-inden-1-one] | > 10000 | > 1000 | > 10000 | – |
| COc1cc2c(cc1N1CCN(C)CC1)CC(Cc1cc(OC(F)(F)F)cc(C(O)(C(F)(F)F)C(F)(F)F)c1)C2=O (stereo not drawn) [compound 236, 2-(3-(1,1,1,3,3,3-hexafluoro-2-hydroxypropan-2-yl)-5-(trifluoromethoxy)benzyl)-6-methoxy-5-(4-methylpiperazin-1-yl)-2,3-dihydro-1H-inden-1-one] | > 1000 | < 500 | > 1000 | – |
| COc1ccc2c(c1Cl)CC(Cc1ncccc1C(F)(F)F)C2=O (stereo not drawn) [compound 179] | > 1000 | < 500 | < 500 | – |
| COc1cc2c(cc1Cl)CC(Cc1ccc(SC(F)(F)F)cc1)C2=O (stereo not drawn) [compound 172] | > 1000 | < 500 | > 1000 | – |
| COc1cc2c(cc1N1CCOCC1)CC(Cc1ncc(C(O)(C(F)(F)F)C(F)(F)F)cc1C(F)(F)F)C2=O (stereo not drawn) [compound 268] | < 500 | < 500 | < 500 | – |
